“And” between values parts separate entries of the source, which are not always exact repeats. Equal entries are not always repeated.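 Dose response: 5 concentrations. Exposure: 48 h. Format: 96-well plates. Endpoint: linear interpolation; highest concentration if not reached. The concentration for 50% growth inhibition is given as GI50. At the TGI there is no net growth.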
Columns and labels:
Test in all cases: NCI tumour cell line growth inhibition, 48 h
MOLT-4 leukemia = system: MOLT-4 leukemia
UO-31 renal = system: UO-31 renal
NCI-H522 lung = system: NCI-H522 lung
OVCAR-5 ovarian = system: OVCAR-5 ovarian
SNB-75 CNS = system: SNB-75 CNS
NCI-H460 lung = system: NCI-H460 lung
PC-3 prostate = system: PC-3 prostate
SK-MEL-2 melanoma = system: SK-MEL-2 melanoma
MCF7 breast = system: MCF7 breast
SR leukemia = system: SR leukemia

| Structure (SMILES) | GI50 (MOLT-4 leukemia) [µM] | TGI (MOLT-4 leukemia) [µM] | GI50 (UO-31 renal) [µM] | TGI (UO-31 renal) [µM] | GI50 (NCI-H522 lung) | TGI (NCI-H522 lung) | GI50 (OVCAR-5 ovarian) [µM] | TGI (OVCAR-5 ovarian) [µM] | GI50 (SNB-75 CNS) [µM] | TGI (SNB-75 CNS) [µM] | GI50 (NCI-H460 lung) [µM] | TGI (NCI-H460 lung) [µM] | GI50 (PC-3 prostate) [µM] | TGI (PC-3 prostate) [µM] | GI50 (SK-MEL-2 melanoma) [µM] | TGI (SK-MEL-2 melanoma) [µM] | GI50 (MCF7 breast) [µM] | TGI (MCF7 breast) [µM] | TGI (SR leukemia) [µM] | GI50 (SR leukemia) [µM] |
| --- | --- | --- | --- | --- | --- | --- | --- | --- | --- | --- | --- | --- | --- | --- | --- | --- | --- | --- | --- | --- |
| CC(C)N(C[C@H]1O[C@@H](n2cnc3c(N)ncnc32)[C@H](O)[C@@H]1O)C1CC(CCc2nc3ccc(C(C)(C)C)cc3[nH]2)C1 (stereo partly drawn) | 30.9 | > 81.3 | > 100 | > 100 | > 75.9 µM | > 100 µM | > 46.9 | > 100 | 24.9 | > 100 | > 100 | > 100 | 97.9 | > 100 | > 69 | > 100 | 33.2 | > 100 | – | – |
| O=C1c2ccccc2C(=O)c2sc(Nc3ccc(Cl)c(Cl)c3)nc21 | – | 6.37 | – | 4.97 | – | 4.66 µM | – | 7.58 | – | 26.7 | – | 34.2 | – | – | – | 33.2 | – | – | 11.5 | – |
| COc1ccc(C2C3=C(COC3=O)N(CCO)c3cc4c(cc32)OCCO4)cc1OC (stereo not drawn) | 2.85 | > 47.4 | 4.09 | > 50 | 0.27 µM | 1.38 µM | 18.4 | > 50 | – | – | 1.84 | > 18.9 | 1.58 | > 50 | 0.979 | 3.65 | 0.634 | > 50 | 35.8 | 0.741 |
| Oc1[nH]c2ccc(Cl)cc2c1/C=c1/ccc2c(c1)N=C(c1cc(F)cc(F)c1)N=2 | 3.32 | > 100 | 87.3 | > 100 | 2.14 µM | 5.74 µM | > 100 | > 100 | 2.06 | 7.13 | – | – | 3.44 | > 100 | 3.24 | 8.52 | – | – | 7.95 | 2.98 |
| CCOC(=O)C1(Cc2ccc3ccccc3c2)CCCCCN1 (stereo not drawn) | – | 90.7 | – | 82.1 | – | – | – | – | – | 30.2 | – | 34.7 | – | – | – | – | – | – | – | – |
| O=c1[nH]c2c(O)cccc2c2cc3c(c(O)c12)OCO3 | – | > 100 | – | 54.1 | – | 63.4 µM | – | – | – | > 100 | – | 36.6 | – | – | – | – | – | – | – | – |
| CCNCCNc1cc(-c2cccc(C(F)(F)F)c2)c(C#N)c2nc3ccccc3n12 | – | – | 0.603 | 2.07 | 1.86 µM | 3.46 µM | 1.83 | 3.71 | 1.5 | 2.92 | 0.457 | 1.81 | 1.83 | 3.54 | 1.87 | 3.59 | – | – | – | – |
| O=[N+]([O-])c1cc(/C=N/NS(=O)(=O)c2ccc(F)cc2)c(O)c([N+](=O)[O-])c1 | – | 88.6 | – | > 100 | – | 46.3 µM | – | > 100 | – | 76.9 | – | 84 | – | – | – | > 100 | – | – | 41.2 | – |
| N#CC(C#N)=Cc1ccc(-c2ccc(-c3nc4ccccc4o3)cc2)o1 | 12.1 | > 100 | 58.4 | > 100 | 60.4 µM | > 100 µM | 27.1 | 52 | > 100 | > 100 | 38.4 | > 100 | 29.5 | > 100 | > 100 | > 100 | 7.99 | > 100 | – | – |
| O=C1c2cccc3cc([N+](=O)[O-])cc(c23)C(=O)N1O | – | > 100 | – | > 100 | – | > 100 µM | – | > 100 | – | – | – | > 100 | – | > 100 | – | > 100 | – | 91.8 | > 100 | – |
| CCOC(=O)CNC(=O)C(CSC(=O)N(C)O)NC(=O)CCC(N)C(=O)O (stereo not drawn) | > 2000 | > 2000 | > 2000 | > 2000 | > 2000 µM | > 2000 µM | – | – | > 2000 | > 2000 | > 2000 | > 2000 | – | – | > 2000 | > 2000 | – | – | 1.02 | – |
| CC1(C)CC2CC(C)(CN2c2ncnc3ccc(Br)cc23)C1 (stereo not drawn) | 0.134 | 11.2 | 14 | 56.1 | 13 µM | 29.3 µM | 14.1 | 27.1 | – | – | 11.1 | 35.2 | – | – | 28.8 | > 100 | – | – | – | – |
| NC(=O)CCC(NC(=O)C(F)(F)F)C(=O)O (stereo not drawn) | – | > 100 | – | > 100 | – | > 100 µM | – | > 100 | – | > 100 | – | > 100 | – | – | – | > 100 | – | – | – | – |
| NC(=O)NC(=O)C1CCCCC1C(=O)O (stereo not drawn) | – | – | – | > 100 | – | > 100 µM | – | > 100 | – | > 100 | – | > 100 | – | > 100 | – | > 100 | – | > 100 | – | – |
| CC(C)[O-].CC(C)[O-].[O-]c1cccc2cccnc12.[O-]c1cccc2cccnc12.[Ti+4] | – | – | > 100 | > 100 | 1.41 µM and 1.93 µM | 2.84 µM and 5.68 µM | 51.1 | > 100 | > 100 | > 100 | – | – | – | – | 31.3 | > 100 | – | – | – | – |
| Cc1cc2nc3c4ccccc4n(CCN(C)C)c3nc2cc1C | 0.555 | 9.9 | 0.726 | 14.5 | 0.673 µM | 3.24 µM | 2.1 | 6.45 | 1.28 | 3.2 | 0.709 | 9.1 | 2.01 | 8.19 | 1.9 | 4.24 | 1.41 | 7.14 | – | – |
| OC(c1ccccc1)c1c(-c2ccccc2)oc(-c2ccccc2)c1C(O)c1ccccc1 (stereo not drawn) | – | 22 | – | 25 | – | 11.1 µM | – | 32.6 | – | – | – | 28.8 | – | 24.1 | – | 31.5 | – | 16.6 | 62.9 | – |
| C[N+]1=c2c3cccc4cccc(c(=O)n2CCC1)c43 | – | 58.9 | – | 39.5 | – | 30.2 µM | – | 36.5 | – | 78.7 | – | 37.7 | – | – | – | 35.3 | – | – | 46.9 | – |
